Test [1] has as its target T1, PARL (Homo sapiens, UniProt Q9H300).
T1 sequence (Q9H300 53-379): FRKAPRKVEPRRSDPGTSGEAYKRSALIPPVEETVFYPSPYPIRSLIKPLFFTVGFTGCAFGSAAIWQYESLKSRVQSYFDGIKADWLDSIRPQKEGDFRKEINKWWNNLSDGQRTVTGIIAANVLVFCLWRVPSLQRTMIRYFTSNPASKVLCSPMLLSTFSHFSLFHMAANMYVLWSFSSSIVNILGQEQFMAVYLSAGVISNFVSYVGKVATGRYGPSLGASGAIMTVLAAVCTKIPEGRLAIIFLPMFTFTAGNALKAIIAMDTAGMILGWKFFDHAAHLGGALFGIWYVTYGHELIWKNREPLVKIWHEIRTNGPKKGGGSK
As to the kind of experiment: PARL inhibition in vitro, PARL in liposomes with substrate compound 4. The settings on record: recombinant mature PARL in liposomes, 100 μM substrate compound 4, mean ± SEM of three or four measurements. Details: hexahistidine tag (C); made in house; host or cells: continuous-exchange cell-free expression in bacterial lysates with T7 polymerase (CUBE biotech), into liposomes. It is filed as biochemical. The method, then: Liposome preparation and cell-free protein expression of PARL were carried out essentially as described previously.[27] Liposomes resembling the lipid composition of the IMM were prepared by mixing 40% DOPC (1,2-dioleoyl-sn-glycero-3-phosphocholine), 33.8% DOPE (1,2-dioleoyl-sn-glycero-3-phosphoethanolamine), 18% CL(18:1)4 (1′,3′-bis[1,2-dioleyl-sn-glycero-3-phospho]-glycerol), 3% DOPS (1,2-dioleoyl-sn-glycero-3-phospho-L-serine), 5% soy-PI (L-α-phosphatidylinositol), and 0.2% rhodamine-PE (1,2-dioleoyl-sn-glycero-3-phosphoethanolamine-N-(lissamine rhodamine B sulfonyl)) in chloroform, followed by the evaporation of chloroform by a stream of nitrogen gas and drying in a vacuum chamber (Binder) for 1 h. Dried lipids were dissolved in buffer (5 mM Tris/HCl, pH 8.5, 10 mM KOAc) and extruded 21 times through a mini extruder (Avanti Polar Lipids) using a polycarbonate membrane with a pore size of […]. […] The PARL-containing liposomes were purified by a step-wise sucrose step-gradient centrifugation (0, 15, 30, and 40% sucrose in 5 mM HEPES pH 7.5 with 25 mM NaCl) for 2 h at 200,000 × g. Soluble proteoliposomes were harvested at the 0%/15% sucrose interface after the centrifugation. Concentration of PARL was determined by absorption at 280 nm.
PARL inhibition in vitro was measured in 5 mM Tris, 5 mM Mg(OAc)2, 25 μM Zn(OAc)2, 0.1 μg/μL BSA, 10% DMSO, pH 8.0 using PARL in liposomes at 0.07 mg/mL and compound 4 at 100 μM final concentration. Inhibitor concentrations were determined by quantitative amino acid analysis. Inhibitors in DMSO were dissolved at the respective concentrations into the reaction buffer by vigorous mixing at 1000 rpm, 37 °C for 40 min and then pre-incubated with PARL in liposomes at 37° for 1 h. The cleavage reaction was started by adding compound 4 and carried out at 37 °C in 96-well black HTS plates (Greiner Bio-One). Fluorescence was read in a plate reader (Tecan Infinite M1000) with excitation and emission wavelengths set to 355 and 450 nm, respectively. Data were evaluated using Excel (Microsoft) and GraphPad Prism 9 (GraphPad Software, Inc.). The data shown are representative of at least three independent experiments.

The test system of test [2] is Parkin. The test can be described thus: Parkin recruitment to mitochondria, subcellular fractionation and immunoblot. The test is classed as cell-based, human. The settings on record: HEK293 T-REx PINK1 cells, HA-Parkin-IRES-GFP; 5 μM compound 5, CCCP 10 μM or Antimycin A 30 μM. The method, then: (§1) Inducible stable Flp-In HEK293 T-REx cells expressing PINK1 were described previously.[33] HEK293 T-REx PINK1 and HEK293T cells were grown in DMEM (Gibco) supplemented with 10% (v/v) fetal bovine serum (ThermoFisher), 1% (v/v) GlutaMAX (Gibco), 1% (v/v) sodium pyruvate (Gibco), 125 μg/mL hygromycin (Invitrogen), and 10 μg/mL blasticidin (Gibco) or DMEM supplemented with 10% (v/v) fetal bovine serum, respectively, at 37 °C in 5% (v/v) CO2. For microscopy, cells were seeded on poly-L-lysine (Sigma)-coated slides. Transient plasmid transfections were performed using 25 kDa linear polyethylenimine (Polysciences). Plasmid (100 ng) encoding HA-Parkin-IRES-GFP, mito-mCherry or Parkin-mEGFP, or 500 ng plasmid encoding PGAM5-FLAG were used per 6-well. Total transfected DNA was 2 μg/well. For siRNA transfection, 2 × 10^5 cells were seeded per 6-well and on the next day transfected with 20 nM siRNA-oligonucleotide using lipofectamine RNAiMAX (ThermoFisher). Cells were analyzed 27 h post-transfection or five days post-siRNA-transfection. HEK293 T-REx PINK1 cells were induced with 0.3 μg/mL doxycycline for 24 h before further processing. Hoechst staining (1 μg/mL) was done immediately before adding treatment to the cells. Treatments were administered for the indicated times before processing; CCCP (Sigma) was always used as 10 μM for 3 h and Antimycin A (Sigma) as 30 μM for 3 h.
Unless mentioned otherwise, all steps were performed at 4 °C. For subcellular fractionation to separate cellular content into cytosolic and mitochondrial fractions, cells were washed with PBS, harvested in PBS-EDTA (1 mM EDTA, 0.2 g/L D-glucose), and centrifuged at 500 × g for 5 min. […]
For immunoblot analysis in other cases, cells were either processed as described above or washed with PBS and directly lysed with Tris-glycine SDS-PAGE sample buffer and heated for 15 min at 65 °C. […] For quantification, ImageJ was used (http://rsb.info.nih.gov/ij/). […]

The test system of test [3] is Parkin. As to the kind of experiment: Parkin recruitment to mitochondria and mitochondrial morphology, fluorescence microscopy. It is filed as cell-based, human. To be noted: HEK293 T-REx PINK1 cells, 3 h; 5 μM compound 5, CCCP or Antimycin A, vs DMSO. On the procedure: as §1
For fixation, cells were incubated for 15 min with 4% formaldehyde (16% formaldehyde diluted in PBS, Thermo Scientific) and washed in PBS. The cover glasses were mounted with Fluoromount-G (Southern Biotech) on microscope slides. […] Parkin recruitment events to the mitochondria were counted by hand throughout each z-stack and cell. […] JC-1 images were handled as summed intensity z-stack projections, as well as subjected to flatfield correction and subtraction of background before measuring the fluorescence levels normalized to the number of cell nuclei. The fluorescence intensity ratio between the red and green signal was calculated and compared to DMSO as a ratio of 1. Data were evaluated using Excel and GraphPad Prism 6.

The target in test [4] is T1, PARL. As to the kind of experiment: In vitro assay for PARL activity, cleavage of AMC substrates by liposome-embedded PARL. The settings on record: mature PARL in liposomes, S277A catalytic mutant as control. It is filed as biochemical. Further details: hexahistidine tag (C); made in house; host or cells: continuous-exchange cell-free expression in bacterial lysates with T7 polymerase (CUBE biotech), into liposomes. The method, then: Liposome preparation and cell-free protein expression of PARL were carried out essentially as described previously.[27] Liposomes resembling the lipid composition of the IMM were prepared by mixing 40% DOPC (1,2-dioleoyl-sn-glycero-3-phosphocholine), 33.8% DOPE (1,2-dioleoyl-sn-glycero-3-phosphoethanolamine), 18% CL(18:1)4 (1′,3′-bis[1,2-dioleyl-sn-glycero-3-phospho]-glycerol), 3% DOPS (1,2-dioleoyl-sn-glycero-3-phospho-L-serine), 5% soy-PI (L-α-phosphatidylinositol), and 0.2% rhodamine-PE (1,2-dioleoyl-sn-glycero-3-phosphoethanolamine-N-(lissamine rhodamine B sulfonyl)) in chloroform, followed by the evaporation of chloroform by a stream of nitrogen gas and drying in a vacuum chamber (Binder) for 1 h. […] Concentration of PARL was determined by absorption at 280 nm.
The PARL activity assay in vitro was carried out in 5 mM Tris, 5 mM Mg(OAc)2, 25 μM Zn(OAc)2, 0.1 μg/μL BSA, 30% DMSO, pH 8.0 using PARL in liposomes at 0.05 mg/mL. Compound 3 and 4 were used at 5 μM final concentration based on quantitative amino acid analysis. […] The cleavage reaction was carried out at 37 °C in 96-well black HTS plates (Greiner Bio-One) in a plate reader (Tecan Infinite M1000) with excitation and emission wavelengths set to 355 and 450 nm, respectively. Data were evaluated using Excel (Microsoft) and GraphPad Prism 9 (GraphPad Software, Inc.).

Test [5] addresses T1, PARL. As to the kind of experiment: PARL inhibition assay in cells: cleavage of overexpressed PGAM5-Myc by tetracycline-induced PARL-FLAG, immunoblot. It is filed as cell-based. Further details: expressed in transfected cells; host or cells: Flp-In HEK293 T-REx PARL knockout cells. The settings on record: Flp-In HEK293 T-REx PARL KO cells with inducible PARL-FLAG, PGAM5-Myc, mean ± SEM of four or three experiments; read-out: Apparent IC50, PGAM5 cleavage by overexpressed PARL. On the procedure:
PARL inhibition assays in cells were carried out in Flp-In HEK293 T-REx PARL knockout cells stably transfected with tetracycline inducible PARL-FLAG grown in DMEM (Gibco) supplemented with 10% (v/v) tetracycline-free fetal bovine serum (Clontech). For the inhibition assay, 0.7 × 10^6 cells were seeded per well of a 6-well plate, and the next day transfected with 5 μg of human PGAM5-Myc in pcDNA and 15 μg of branched polyethylenimine (Polysciences) per well. Four hours after transfection, the PARL expression was induced by adding tetracycline to 1 μg/mL. Eight hours after transfection, the inhibitors were added to each well in different concentrations in serum-free DMEM with 1% DMSO.
For immunoblot analysis of the effects of PARL inhibitors on PGAM5 cleavage, after overnight incubation with inhibitors, cells from each well were harvested in 1× SDS sample buffer containing 20 mM MgCl2 and Pierce universal nuclease (250 U/mL, Thermo Scientific) and heated to 65 °C for 10 min. Loading volumes for SDS-PAGE were adjusted by measuring total protein concentration in the lysates with Pierce 660 nm Protein Assay Reagent and Ionic Detergent Compatibility Reagent for Pierce 660 nm Protein Assay Reagent (Thermo Scientific). Samples were resolved by SDS-PAGE using a 12% polyacrylamide gel (Biorad) and electrotransferred onto an Immobilon PVDF membrane (Merck Millipore). Blots were blocked using casein blocker (Thermo Scientific) and hPGAM5 was labeled by rabbit anti-Myc antibody (Cell Signaling Technology, cat. #2278, dilution 1:1000) at 4 °C overnight. Blots were washed three times with TBS-T and incubated with IRDye 800 CW donkey anti-rabbit antibody (Invitrogen, cat. #SA5-10044, dilution 1:10,000) at room temperature for 2 h. Membranes were then again washed three times with TBS-T and one time with TBS. Fluorescence emission at […] of dried membranes was scanned on Odyssey CLx (LI-COR). Cleavage efficiency and inhibition were analyzed as described[23] using Image Studio Lite (LI-COR), Excel (Microsoft) and GraphPad Prism 9 (GraphPad Software, Inc.).

*1 amine or outer side, *2 acyl side, *3 side chain or, on linkers, in order; H or OH if unused. Where a SMILES comes first, the peptide text is derived from it. [ ]: non-standard residue; d: D form. The star is where a group is joined. X2 = O=C(C(=O)[*:2])[C@H](Cc1ccccc1)N[*:1]; NH(4-phenylbutyl) = c1ccc(CCCCN*)cc1; X1 = C[C@H](N[*:1])C(=O)C(=O)[*:2]; AMC = Cc1cc(=O)oc2cc(N*)ccc12

Consider `CC[C@H](C)[C@H](NC(=O)[C@H](CCCCN)NC(=O)[C@H](Cc1ccccc1)NC(=O)[C@H](CCCNC(=N)N)NC(=O)[C@H](CCCNC(=N)N)NC(C)=O)C(=O)N[C@@H](Cc1ccccc1)C(=O)C(=O)NCCCCc1ccccc1` [compound 7] (Ac-RRFKI[X2]-{NH(4-phenylbutyl)}), for which the IC50 on PARL [1] turned out to be 1040 nM. As for `CCCCCC[C@H]1C(=O)O[C@H](C)[C@H](NC(=O)c2cccc(NC=O)c2O)C(=O)O[C@@H](C)[C@@H]1OC(=O)CC(C)C` [Antimycin A], in the test with Parkin [2], the “Parkin recruitment to the mitochondrial fraction” value was “activates the PINK1/Parkin pathway”. Besides, the “Recruitment of Parkin-mEGFP to mitochondria (microscopy)” value in the test with Parkin [3] is “not significantly different from Parkin recruitment under DMSO conditions”. For the compound `CC(=O)N[C@@H](C)C(=O)N[C@H](C(=O)N[C@@H](Cc1ccccc1)C(=O)N[C@@H](CC(C)C)C(=O)N[C@@H](C)C(=O)Nc1ccc2c(C)cc(=O)oc2c1)C(C)C` [compound 3, AcAVFLA-4mc] (Ac-AVFLA-{AMC}), the “Cleavage of substrate by liposome-embedded PARL” value on PARL [4] is “are cleaved by liposome-embedded PARL but not its catalytic mutant”. For the compound `CC(=O)N[C@@H](CCCNC(=N)N)C(=O)N[C@@H](CCCNC(=N)N)C(=O)N[C@@H](C)C(=O)N[C@H](C(=O)N[C@@H](Cc1ccccc1)C(=O)N[C@@H](CC(C)C)C(=O)N[C@@H](C)C(=O)C(=O)NCCCCc1ccccc1)C(C)C` [compound 6] (Ac-RRAVFL[X1]-{NH(4-phenylbutyl)}), the half-inhibitory concentration (IC50) on PARL [5] came out at 3200 nM; on PARL [1] it was 80 nM.

(Values after publication PMC9841525, “Chemical Blockage of the Mitochondrial Rhomboid Protease PARL by Novel Ketoamide Inhibitors Reveals Its Role in PINK1/Parkin-Dependent Mitophagy” (Journal of Medicinal Chemistry, 2022).)
